Test results: PubChem BioAssay (NCI)
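Exposure lasted 48 hours, with cells grown in 96-well plates and compounds tested at five concentrations. TGI: concentration producing complete growth inhibition.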

Legend:
Test in all cases: DTP human tumour cell line panel, 48 h
[1] = test system: SNB-19 CNS
[2] = test system: SK-MEL-28 melanoma
[3] = test system: IGROV1 ovarian
[4] = test system: EKVX NSCLC
[5] = test system: OVCAR-8 ovarian
[6] = test system: 786-0 renal
[7] = test system: DU-145 prostate
[8] = test system: K-562 leukemia
[9] = test system: SW-620 colon
[10] = test system: CCRF-CEM leukemia
[11] = test system: NCI-H23 lung
[12] = test system: A549 NSCLC
[13] = test system: OVCAR-3 ovarian
[14] = test system: OVCAR-4 ovarian
[15] = test system: TK-10 renal
[16] = test system: T-47D breast
[17] = test system: SK-OV-3 ovarian
[18] = test system: MDA-N
[19] = test system: HCT-15 colon
[20] = test system: HT29 colon
[21] = test system: HOP-62 NSCLC
[22] = test system: U251 CNS
[23] = test system: HS 578T breast
[24] = test system: NCI-H460 lung
[25] = test system: MDA-MB-231 breast
[26] = test system: SF-295 CNS
[27] = test system: HOP-92 NSCLC
[28] = test system: ACHN renal
[29] = test system: MCF7 breast
[30] = test system: MALME-3M melanoma
[31] = test system: NCI/ADR-RES ovarian
[32] = test system: HL-60(TB) leukemia
[33] = test system: PC-3 prostate
[34] = test system: UACC-257 melanoma
[35] = test system: RPMI-8226 leukemia
[36] = test system: HCT-116 colon
[37] = test system: UO-31 renal
[38] = test system: SK-MEL-2 melanoma
[39] = test system: SK-MEL-5 melanoma
[40] = test system: SN12C renal
[41] = test system: SR leukemia
[42] = test system: UACC-62 melanoma
[43] = test system: MOLT-4 leukemia
[44] = test system: SF-268 CNS
[45] = test system: HCC-2998 colon
[46] = test system: OVCAR-5 ovarian
[47] = test system: LOX IMVI melanoma
[48] = test system: CAKI-1 renal
[49] = test system: COLO 205 colon
[50] = test system: NCI-H522 lung
[51] = test system: KM12 colon

`S=C1NC2=C(CSC/C2=C\c2ccc(Cl)cc2)C(c2ccc(Cl)cc2)N1` (stereo unspecified) gave a TGI [1] greater than 100 µM, a TGI [2] greater than 100 µM and a TGI [3] greater than 100 µM. For the same molecule, the TGI [4] was greater than 100 µM, the TGI [5] was greater than 100 µM and the TGI [6] was 84 µM. It also gave a TGI [7] greater than 100 µM, a TGI [8] greater than 100 µM and a TGI [9] greater than 100 µM. The TGI [10] was 70.9 µM, the TGI [11] was greater than 100 µM and the TGI [12] was greater than 100 µM. It also gave a TGI [13] greater than 100 µM, a TGI [14] greater than 100 µM and a TGI [15] greater than 100 µM. It also gave a TGI [16] greater than 100 µM, a TGI [17] greater than 100 µM and a TGI [18] greater than 100 µM. It also gave a TGI [19] greater than 100 µM, a TGI [20] greater than 100 µM and a TGI [21] greater than 100 µM. For the same molecule, the TGI [22] was greater than 100 µM, the TGI [23] was greater than 100 µM and the TGI [24] was greater than 100 µM. It also gave a TGI [25] greater than 100 µM, a TGI [26] greater than 100 µM and a TGI [27] of 88.4 µM. The TGI [28] was greater than 100 µM, the TGI [29] was greater than 100 µM and the TGI [30] was 71.3 µM. For the same molecule, the TGI [31] was greater than 100 µM, the TGI [32] was 70.7 µM and the TGI [33] was greater than 100 µM. It also gave a TGI [34] greater than 100 µM, a TGI [35] of 94.5 µM and a TGI [36] greater than 100 µM. For the same molecule, the TGI [37] was greater than 100 µM, the TGI [38] was greater than 100 µM and the TGI [39] was 37.3 µM. The TGI [40] was greater than 100 µM, the TGI [41] was greater than 100 µM and the TGI [42] was greater than 100 µM. The TGI [43] was greater than 100 µM, the TGI [44] was greater than 100 µM and the TGI [45] was 77.6 µM. The TGI [46] was greater than 100 µM, the TGI [47] was greater than 100 µM and the TGI [48] was greater than 100 µM. The TGI [49] was 32.7 µM, the TGI [50] was greater than 100 µM and the TGI [51] was greater than 100 µM.
